# What was measured:
# [1] = target: Histamine H3 receptor (Homo sapiens, UniProt Q9Y5N1)
# [2] = target: Motilin receptor (Homo sapiens, UniProt O43193)
# [3] = target: T1, Adenosine receptor A3 (Homo sapiens, UniProt P0DMS8)
# T1 sequence (P0DMS8 whole entry): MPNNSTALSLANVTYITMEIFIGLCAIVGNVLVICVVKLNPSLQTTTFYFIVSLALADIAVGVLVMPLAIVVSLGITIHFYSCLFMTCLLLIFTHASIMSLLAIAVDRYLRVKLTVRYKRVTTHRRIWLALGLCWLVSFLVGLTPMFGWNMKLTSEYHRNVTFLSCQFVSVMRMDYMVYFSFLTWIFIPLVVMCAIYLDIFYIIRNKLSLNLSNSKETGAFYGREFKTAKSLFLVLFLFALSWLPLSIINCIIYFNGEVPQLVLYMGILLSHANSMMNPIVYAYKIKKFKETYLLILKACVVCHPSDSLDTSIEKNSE
# [4] = target: T2, Alpha-1A adrenergic receptor (Homo sapiens, UniProt P35348); type: functional, cell-based
# T2 sequence (P35348 whole entry): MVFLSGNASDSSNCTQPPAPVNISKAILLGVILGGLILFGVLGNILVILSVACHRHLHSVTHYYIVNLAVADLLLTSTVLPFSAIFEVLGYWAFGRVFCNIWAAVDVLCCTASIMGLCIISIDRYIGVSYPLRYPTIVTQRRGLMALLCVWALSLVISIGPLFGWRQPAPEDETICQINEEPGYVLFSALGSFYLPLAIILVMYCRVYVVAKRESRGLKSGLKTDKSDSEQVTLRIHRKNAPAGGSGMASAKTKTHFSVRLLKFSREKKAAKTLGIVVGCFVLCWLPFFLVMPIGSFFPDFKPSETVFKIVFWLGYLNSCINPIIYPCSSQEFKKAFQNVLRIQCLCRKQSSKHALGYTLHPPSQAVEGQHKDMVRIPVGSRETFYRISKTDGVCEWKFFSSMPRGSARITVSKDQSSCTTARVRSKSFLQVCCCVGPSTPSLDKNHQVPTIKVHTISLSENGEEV
# [5] = target: Delta-type opioid receptor (Homo sapiens, UniProt P41143)
# Sequence of Delta-type opioid receptor (P41143 whole entry): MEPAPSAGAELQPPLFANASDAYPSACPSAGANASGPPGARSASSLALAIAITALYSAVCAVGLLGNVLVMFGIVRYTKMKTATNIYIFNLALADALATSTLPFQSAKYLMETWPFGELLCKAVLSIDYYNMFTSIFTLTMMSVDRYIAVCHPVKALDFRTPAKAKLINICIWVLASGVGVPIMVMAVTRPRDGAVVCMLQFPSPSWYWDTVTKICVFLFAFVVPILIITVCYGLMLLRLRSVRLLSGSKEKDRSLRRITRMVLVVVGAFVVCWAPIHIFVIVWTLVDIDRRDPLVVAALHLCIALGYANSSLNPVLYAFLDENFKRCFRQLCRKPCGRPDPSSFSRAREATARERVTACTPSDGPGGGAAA
# [6] = target: Vascular endothelial growth factor receptor 2 (Homo sapiens, UniProt P35968); type: functional
# [7] = target: cGMP-inhibited 3',5'-cyclic phosphodiesterase 3A (Homo sapiens, UniProt Q14432); type: functional
# Sequence of cGMP-inhibited 3',5'-cyclic phosphodiesterase 3A (Q14432 whole entry): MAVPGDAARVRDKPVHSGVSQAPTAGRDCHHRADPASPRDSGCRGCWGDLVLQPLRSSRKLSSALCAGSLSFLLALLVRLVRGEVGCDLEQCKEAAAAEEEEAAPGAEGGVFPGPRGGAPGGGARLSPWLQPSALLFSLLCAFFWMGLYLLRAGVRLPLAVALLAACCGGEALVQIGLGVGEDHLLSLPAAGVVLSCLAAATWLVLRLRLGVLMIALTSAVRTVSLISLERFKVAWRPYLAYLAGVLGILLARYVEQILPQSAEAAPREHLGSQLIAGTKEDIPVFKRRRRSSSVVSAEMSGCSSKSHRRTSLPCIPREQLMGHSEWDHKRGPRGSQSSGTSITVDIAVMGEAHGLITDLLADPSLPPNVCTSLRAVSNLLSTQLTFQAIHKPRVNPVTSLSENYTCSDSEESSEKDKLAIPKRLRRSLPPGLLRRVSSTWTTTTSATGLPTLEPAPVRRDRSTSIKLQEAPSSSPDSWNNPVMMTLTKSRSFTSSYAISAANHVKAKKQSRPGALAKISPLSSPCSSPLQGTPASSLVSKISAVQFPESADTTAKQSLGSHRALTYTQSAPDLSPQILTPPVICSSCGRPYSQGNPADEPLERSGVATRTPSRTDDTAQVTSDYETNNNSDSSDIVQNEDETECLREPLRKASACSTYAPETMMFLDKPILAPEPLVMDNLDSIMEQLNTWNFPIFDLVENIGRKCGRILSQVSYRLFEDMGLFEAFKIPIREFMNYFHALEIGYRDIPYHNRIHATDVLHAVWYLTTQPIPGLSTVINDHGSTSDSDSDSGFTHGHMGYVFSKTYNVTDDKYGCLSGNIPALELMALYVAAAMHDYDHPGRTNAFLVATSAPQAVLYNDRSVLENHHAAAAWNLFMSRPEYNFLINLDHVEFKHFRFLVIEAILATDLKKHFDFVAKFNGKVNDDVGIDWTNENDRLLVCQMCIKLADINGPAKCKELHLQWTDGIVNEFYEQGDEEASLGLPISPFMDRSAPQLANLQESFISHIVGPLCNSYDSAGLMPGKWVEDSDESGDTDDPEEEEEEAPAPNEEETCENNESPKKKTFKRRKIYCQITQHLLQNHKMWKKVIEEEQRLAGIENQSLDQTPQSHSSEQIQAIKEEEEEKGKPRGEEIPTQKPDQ
# [8] = target: Glutamate receptor ionotropic, NMDA 1 (Rattus norvegicus, UniProt P35439)
# [9] = target: T3, Type-1 angiotensin II receptor (Homo sapiens, UniProt P30556)
# T3 sequence (P30556 whole entry): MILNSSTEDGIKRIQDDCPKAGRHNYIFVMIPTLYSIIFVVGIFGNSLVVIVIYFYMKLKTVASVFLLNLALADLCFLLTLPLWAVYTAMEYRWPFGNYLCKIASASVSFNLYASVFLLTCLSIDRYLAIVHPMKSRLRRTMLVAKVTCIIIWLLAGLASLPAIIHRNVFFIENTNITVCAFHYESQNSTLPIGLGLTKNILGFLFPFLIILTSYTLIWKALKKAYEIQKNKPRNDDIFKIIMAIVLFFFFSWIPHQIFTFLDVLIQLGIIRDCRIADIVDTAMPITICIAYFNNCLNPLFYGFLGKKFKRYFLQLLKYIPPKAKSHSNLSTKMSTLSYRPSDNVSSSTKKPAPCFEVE
# [10] = target: Adenosine receptor A2a (Homo sapiens, UniProt P29274)
# Sequence of Adenosine receptor A2a (P29274 whole entry): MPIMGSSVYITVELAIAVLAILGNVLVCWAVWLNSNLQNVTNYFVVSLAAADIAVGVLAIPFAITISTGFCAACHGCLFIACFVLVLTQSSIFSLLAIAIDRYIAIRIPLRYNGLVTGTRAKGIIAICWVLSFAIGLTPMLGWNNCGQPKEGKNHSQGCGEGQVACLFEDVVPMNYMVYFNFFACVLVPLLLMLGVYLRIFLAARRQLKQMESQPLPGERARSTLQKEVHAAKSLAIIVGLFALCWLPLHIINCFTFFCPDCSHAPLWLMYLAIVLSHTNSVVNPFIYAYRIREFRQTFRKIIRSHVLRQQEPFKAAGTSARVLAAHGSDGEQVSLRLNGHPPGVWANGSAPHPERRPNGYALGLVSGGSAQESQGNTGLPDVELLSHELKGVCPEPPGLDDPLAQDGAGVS
# [11] = target: Sodium-dependent serotonin transporter (Homo sapiens, UniProt P31645)
# Sequence of Sodium-dependent serotonin transporter (P31645 whole entry): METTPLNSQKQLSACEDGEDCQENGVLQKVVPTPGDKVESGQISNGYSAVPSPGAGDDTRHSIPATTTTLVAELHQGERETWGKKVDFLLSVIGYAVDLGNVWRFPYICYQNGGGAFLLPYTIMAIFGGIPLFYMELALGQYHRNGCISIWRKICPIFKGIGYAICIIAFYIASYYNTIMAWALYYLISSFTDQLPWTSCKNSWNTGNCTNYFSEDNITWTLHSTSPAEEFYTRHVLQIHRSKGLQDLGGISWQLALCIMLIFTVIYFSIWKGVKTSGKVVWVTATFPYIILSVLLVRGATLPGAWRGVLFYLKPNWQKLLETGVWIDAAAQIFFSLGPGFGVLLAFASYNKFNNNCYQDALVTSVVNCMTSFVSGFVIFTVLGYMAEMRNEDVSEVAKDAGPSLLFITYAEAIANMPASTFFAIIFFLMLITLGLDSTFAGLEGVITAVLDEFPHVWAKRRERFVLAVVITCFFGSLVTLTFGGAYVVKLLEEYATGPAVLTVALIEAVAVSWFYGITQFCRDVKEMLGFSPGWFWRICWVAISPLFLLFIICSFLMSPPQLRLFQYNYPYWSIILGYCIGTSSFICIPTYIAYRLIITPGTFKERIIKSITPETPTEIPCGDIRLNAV
# [12] = target: T4, Prostaglandin G/H synthase 1 (Rattus norvegicus, UniProt Q63921); type: functional
# T4 sequence (Q63921 whole entry): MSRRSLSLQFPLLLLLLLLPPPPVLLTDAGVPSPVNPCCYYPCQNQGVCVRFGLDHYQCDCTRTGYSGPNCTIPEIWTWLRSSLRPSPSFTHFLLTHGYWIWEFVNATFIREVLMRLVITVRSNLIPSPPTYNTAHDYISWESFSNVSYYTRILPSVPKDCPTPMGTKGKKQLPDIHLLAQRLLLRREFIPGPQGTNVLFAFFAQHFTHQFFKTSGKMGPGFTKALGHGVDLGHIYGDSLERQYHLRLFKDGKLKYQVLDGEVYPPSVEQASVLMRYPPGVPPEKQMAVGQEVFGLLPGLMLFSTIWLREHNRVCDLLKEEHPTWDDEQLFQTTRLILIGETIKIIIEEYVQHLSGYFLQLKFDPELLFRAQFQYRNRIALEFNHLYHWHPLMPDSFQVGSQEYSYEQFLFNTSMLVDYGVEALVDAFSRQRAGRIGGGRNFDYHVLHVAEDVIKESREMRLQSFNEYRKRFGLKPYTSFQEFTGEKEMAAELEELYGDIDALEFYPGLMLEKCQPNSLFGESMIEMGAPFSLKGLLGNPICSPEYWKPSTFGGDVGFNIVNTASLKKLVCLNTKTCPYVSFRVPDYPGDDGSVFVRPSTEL
# [13] = target: Sodium-dependent noradrenaline transporter (Homo sapiens, UniProt P23975)
# Sequence of Sodium-dependent noradrenaline transporter (P23975 whole entry): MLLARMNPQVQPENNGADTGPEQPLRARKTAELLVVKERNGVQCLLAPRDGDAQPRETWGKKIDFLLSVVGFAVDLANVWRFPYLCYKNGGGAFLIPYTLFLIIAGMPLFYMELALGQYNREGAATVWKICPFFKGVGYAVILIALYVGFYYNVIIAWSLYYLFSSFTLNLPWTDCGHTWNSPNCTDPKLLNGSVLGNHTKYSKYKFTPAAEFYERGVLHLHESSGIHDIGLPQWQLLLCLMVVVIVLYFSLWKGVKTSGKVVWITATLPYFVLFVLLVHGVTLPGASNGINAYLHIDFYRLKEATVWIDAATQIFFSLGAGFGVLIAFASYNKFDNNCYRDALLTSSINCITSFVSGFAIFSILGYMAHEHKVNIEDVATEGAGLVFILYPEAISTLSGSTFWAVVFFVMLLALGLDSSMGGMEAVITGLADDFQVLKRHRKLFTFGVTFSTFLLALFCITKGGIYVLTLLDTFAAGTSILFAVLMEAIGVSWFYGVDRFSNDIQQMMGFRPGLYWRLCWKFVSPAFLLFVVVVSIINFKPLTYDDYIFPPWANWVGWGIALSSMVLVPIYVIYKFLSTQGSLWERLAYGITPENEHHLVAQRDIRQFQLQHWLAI
# [14] = target: Voltage-dependent L-type calcium channel subunit alpha-1C (Rattus norvegicus, UniProt P22002); type: functional
# [15] = target: T5, Muscarinic acetylcholine receptor M2 (Homo sapiens, UniProt P08172); type: functional, cell-based
# T5 sequence (P08172 whole entry): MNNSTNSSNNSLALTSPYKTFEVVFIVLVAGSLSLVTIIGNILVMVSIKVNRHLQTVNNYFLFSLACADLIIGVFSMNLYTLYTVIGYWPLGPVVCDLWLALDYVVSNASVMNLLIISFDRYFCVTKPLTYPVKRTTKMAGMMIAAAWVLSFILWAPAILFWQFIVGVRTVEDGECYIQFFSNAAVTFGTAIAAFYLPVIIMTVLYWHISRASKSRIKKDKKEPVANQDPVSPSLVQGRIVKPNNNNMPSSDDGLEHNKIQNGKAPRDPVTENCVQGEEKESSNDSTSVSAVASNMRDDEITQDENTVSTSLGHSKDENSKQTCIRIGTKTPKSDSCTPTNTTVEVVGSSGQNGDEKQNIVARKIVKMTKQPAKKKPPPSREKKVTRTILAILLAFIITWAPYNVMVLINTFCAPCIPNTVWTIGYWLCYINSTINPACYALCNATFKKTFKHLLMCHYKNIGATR
# Further: assay procedure not described here.
# Sequence of Histamine H3 receptor (Q9Y5N1 whole entry): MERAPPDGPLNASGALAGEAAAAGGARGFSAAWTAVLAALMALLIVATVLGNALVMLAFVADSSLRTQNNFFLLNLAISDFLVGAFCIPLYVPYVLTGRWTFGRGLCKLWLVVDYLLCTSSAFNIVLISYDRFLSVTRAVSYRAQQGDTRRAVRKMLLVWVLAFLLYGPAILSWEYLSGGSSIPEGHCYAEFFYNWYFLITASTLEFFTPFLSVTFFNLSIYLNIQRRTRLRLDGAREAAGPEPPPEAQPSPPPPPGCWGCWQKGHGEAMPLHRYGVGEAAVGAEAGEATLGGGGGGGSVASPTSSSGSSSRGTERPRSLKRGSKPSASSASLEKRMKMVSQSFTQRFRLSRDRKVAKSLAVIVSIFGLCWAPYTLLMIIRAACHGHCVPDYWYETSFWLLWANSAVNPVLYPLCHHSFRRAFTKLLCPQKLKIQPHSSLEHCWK
# Sequence of Motilin receptor (O43193 whole entry): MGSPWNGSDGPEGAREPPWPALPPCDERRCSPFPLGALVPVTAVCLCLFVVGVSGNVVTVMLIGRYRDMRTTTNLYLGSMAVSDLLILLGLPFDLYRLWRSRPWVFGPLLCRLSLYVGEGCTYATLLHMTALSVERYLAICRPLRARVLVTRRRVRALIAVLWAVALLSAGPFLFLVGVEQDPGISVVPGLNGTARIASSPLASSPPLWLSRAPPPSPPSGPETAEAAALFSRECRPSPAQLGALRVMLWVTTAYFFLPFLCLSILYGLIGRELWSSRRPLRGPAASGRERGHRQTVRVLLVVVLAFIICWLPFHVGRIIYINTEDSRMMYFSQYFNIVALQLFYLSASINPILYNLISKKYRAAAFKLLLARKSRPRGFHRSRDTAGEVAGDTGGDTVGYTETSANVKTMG
compound,measurement,setting,value
O=C(O)COCCN1CCN(C(c2ccccc2)c2ccc(Cl)cc2)CC1 (stereo not given) [CETIRIZINE],AC50,[1],> 10 µM
same,AC50,[2],> 10 µM
same,AC50,[3],> 30 µM
same,AC50,[4],> 30 µM
same,AC50,[5],> 30 µM
same,AC50,[6],> 30 µM
same,AC50,[7],> 30 µM
same,AC50,[8],> 10 µM
same,AC50,[9],> 30 µM
same,AC50,[10],> 30 µM
Cc1oc(=O)oc1COC(=O)[C@@H]1N2C(=O)[C@@H](NC(=O)[C@H](N)c3ccccc3)[C@H]2SC1(C)C [LENAMPICILLIN],AC50,[4],24.5 µM
same,AC50,[11],> 30 µM
same,AC50,[6],> 30 µM
c1ccc2c(SC3=NCCN3)c[nH]c2c1 [TINAZOLINE],AC50,[11],> 30 µM
same,AC50,[6],> 30 µM
CC(OCCN1CCCCCC1)(c1ccccc1)c1ccc(Cl)cc1 (stereo not given) [SETASTINE],AC50,[11],21 µM
same,AC50,[6],> 30 µM
COC(=O)[C@H]1[C@H]2C[C@@H]3c4[nH]c5cc(OC)ccc5c4CCN3C[C@H]2C[C@@H](OC(=O)c2cc(OC)c(OC)c(OC)c2)[C@@H]1OC [RESERPINE],AC50,[2],> 10 µM
same,AC50,[12],18.8 µM
same,AC50,[3],26.5 µM
same,AC50,[4],> 30 µM
same,AC50,[13],> 30 µM
same,AC50,[14],8.83 µM
same,AC50,[5],> 30 µM
same,AC50,[6],> 30 µM
same,AC50,[7],> 30 µM
same,AC50,[8],> 10 µM
same,AC50,[9],> 10 µM
same,AC50,[15],> 10 µM
same,AC50,[10],> 30 µM
C[C@@H]1C[C@H]2[C@@H]3C[C@H](F)C4=CC(=O)C=C[C@]4(C)[C@@]3(F)[C@@H](O)C[C@]2(C)[C@@]1(OC(=O)c1ccco1)C(=O)SCF [FLUTICASONE FUROATE],AC50,[2],> 10 µM
same,AC50,[12],> 10 µM
same,AC50,[3],> 10 µM
same,AC50,[4],> 30 µM
same,AC50,[13],> 10 µM
same,AC50,[14],> 10 µM
same,AC50,[5],> 30 µM
same,AC50,[7],> 30 µM
same,AC50,[8],> 10 µM
same,AC50,[9],> 10 µM
same,AC50,[15],> 10 µM
same,AC50,[10],> 10 µM
COc1cc(C)c2c(Oc3cccc(C(F)(F)F)c3)c(OC)cc(NC(C)CCCN)c2n1 (stereo not given) [TAFENOQUINE],AC50,[4],> 3 µM
same,AC50,[11],10.3 µM
NC(=O)[C@@H]1CC[C@@H]2CN1C(=O)N2OS(=O)(=O)O [AVIBACTAM],AC50,[4],> 30 µM
same,AC50,[11],> 30 µM
same,AC50,[6],> 30 µM
O=C(CCC/C=C\C[C@@H]1[C@@H](CC[C@@H](O)CCc2ccccc2)[C@H](O)C[C@@H]1O)OCCCCO[N+](=O)[O-] [LATANOPROSTENE BUNOD],AC50,[4],> 10 µM
same,AC50,[11],> 30 µM
CC(=O)OC[C@H]1O[C@@H](n2ncc(=O)[nH]c2=O)[C@H](OC(C)=O)[C@@H]1OC(C)=O [AZARIBINE],AC50,[4],> 30 µM
same,AC50,[6],> 30 µM
CC(O)(CS(=O)(=O)c1ccc(F)cc1)C(=O)Nc1ccc(C#N)c(C(F)(F)F)c1 (stereo not given) [BICALUTAMIDE],AC50,[1],> 30 µM
same,AC50,[2],> 30 µM
same,AC50,[12],> 30 µM
same,AC50,[3],> 30 µM
same,AC50,[4],> 3 µM
same,AC50,[13],> 30 µM
same,AC50,[14],> 10 µM
same,AC50,[5],> 10 µM
same,AC50,[7],> 10 µM
same,AC50,[8],> 10 µM
same,AC50,[9],> 30 µM
same,AC50,[15],> 10 µM
same,AC50,[10],> 30 µM
COc1cccc(C(=O)CCN[C@@H](C)[C@H](O)c2ccccc2)c1 [OXYFEDRINE],AC50,[4],0.205 µM
same,AC50,[11],4.77 µM
same,AC50,[6],> 30 µM
CCCSc1nc(N[C@@H]2C[C@H]2c2ccc(F)c(F)c2)c2nnn([C@@H]3C[C@H](OCCO)[C@@H](O)[C@H]3O)c2n1 [TICAGRELOR],AC50,[4],> 10 µM
same,AC50,[11],> 30 µM
same,AC50,[6],> 30 µM
C[C@H](N[C@@H](CCc1ccccc1)C(=O)O)C(=O)N1Cc2ccccc2C[C@H]1C(=O)O,AC50,[4],> 30 µM
same,AC50,[11],> 30 µM
same,AC50,[6],> 30 µM
Cc1cn([C@H]2O[C@@H](CO)[C@H](O)[C@H]2F)c(=O)[nH]c1=O [CLEVUDINE],AC50,[4],> 30 µM
same,AC50,[11],> 30 µM
COc1ccc2c(C(=S)N(C)CC(=O)O)cccc2c1C(F)(F)F [TOLRESTAT],AC50,[11],> 30 µM
COc1ccc(OC)c(C(O)C(C)N)c1 (stereo not given) [METHOXAMINE],AC50,[11],> 30 µM
same,AC50,[6],> 30 µM
CC(=O)O[C@]1(C(C)=O)CC[C@H]2[C@@H]3C=C(Cl)C4=CC(=O)[C@@H]5C[C@@H]5[C@]4(C)[C@H]3CC[C@@]21C [CYPROTERONE ACETATE],AC50,[1],> 10 µM
same,AC50,[2],> 10 µM
same,AC50,[12],> 30 µM
same,AC50,[3],> 30 µM
same,AC50,[4],> 3 µM
same,AC50,[13],> 30 µM
same,AC50,[14],> 10 µM
same,AC50,[5],> 30 µM
same,AC50,[7],> 30 µM
same,AC50,[8],> 10 µM
same,AC50,[9],> 30 µM
same,AC50,[10],> 30 µM
CC(=O)[C@H]1CC[C@H]2[C@@H]3C=CC4=CC(=O)CC[C@@]4(C)[C@@H]3CC[C@]12C [DYDROGESTERONE],AC50,[4],29.2 µM
same,AC50,[11],> 30 µM
Clc1ccc(C(Cn2ccnc2)OCc2csc3c(Cl)cccc23)c(Cl)c1 (stereo not given) [SERTACONAZOLE],AC50,[11],2.89 µM
same,AC50,[6],> 30 µM
C=C1CC[C@H](O)C/C1=C/C=C1\CCC[C@]2(C)[C@@H]([C@H](C)CCCC(C)C)CC[C@@H]12 [CHOLECALCIFEROL],AC50,[4],> 30 µM
same,AC50,[6],> 30 µM
O=S1(=O)CCN(CN2CCS(=O)(=O)NC2)CN1 [TAUROLIDINE],AC50,[12],> 30 µM
same,AC50,[3],> 30 µM
same,AC50,[11],> 30 µM
same,AC50,[13],> 30 µM
same,AC50,[5],> 30 µM
same,AC50,[7],> 30 µM
same,AC50,[8],> 30 µM
same,AC50,[15],> 30 µM
same,AC50,[10],> 30 µM
COC(=O)C[C@](O)(CCCC(C)(C)O)C(=O)O[C@@H]1C(OC)=C[C@]23CCCN2CCc2cc4c(cc2[C@H]13)OCO4 [OMACETAXINE MEPESUCCINATE],AC50,[4],> 30 µM
same,AC50,[11],> 30 µM
CC(O)(P(=O)(O)O)P(=O)(O)O [ETIDRONIC ACID],AC50,[4],> 30 µM
same,AC50,[6],> 30 µM
Cc1ccc(C(=O)C(C)CN2CCCCC2)cc1 (stereo not given) [TOLPERISONE],AC50,[4],> 30 µM
same,AC50,[6],> 30 µM
C[C@H](CCC(=O)O)[C@H]1CC[C@H]2[C@@H]3[C@H](O)C[C@@H]4C[C@H](O)CC[C@]4(C)[C@H]3C[C@H](O)[C@]12C [CHOLIC ACID],AC50,[4],> 30 µM
same,AC50,[6],> 30 µM
NNCCc1ccccc1 [PHENELZINE],AC50,[4],> 1 µM
same,AC50,[6],> 30 µM
